The values that follow come from patent US8686165B2, “Process for preparation of taxane derivatives” (Emcure Pharmaceuticals Limited, priority 2009, dated 2014).

A short description of data set [1]: Comparative stability profile of docetaxel in solution at 35° C. with and without aluminum sulphate. The data set is classed as physicochemical.
Assay in data set [2]: as above
To be noted: for Epi-Docetaxel / Docetaxel: solution at 35° C., trihydrate; for Epi-Docetaxel: 360 min (6 hours); for Docetaxel: 360 min. The data set is classed as physicochemical. The procedure:
The docetaxel solution prepared according to present invention had 0.19% of epi-docetaxel after 6 hours.

Data set [3] is classed as physicochemical. To be noted: 25 ± 2° C./60 ± 5% RH.

Where a name gives a salt, the structure may show the parent alone. Read-outs that look alike come from different tables or passages of the source.

As to `CC(=O)O[C@@]12CO[C@@H]1C[C@H](O)[C@@]1(C)C(=O)[C@H](O)C3=C(C)[C@@H](OC(=O)[C@H](O)[C@@H](NC(=O)OC(C)(C)C)c4ccccc4)C[C@@](O)([C@@H](OC(=O)c4ccccc4)[C@H]21)C3(C)C.O.O.O` [Example 1, Docetaxel trihydrate], the Docetaxel in data set [1] (30 min, trihydrate) was 99.62%; in data set [1] (60 min, trihydrate) it was 99.50%; in data set [1] (Initial), 99.68%; in data set [2], 99.38%. Also, the Epi-Docetaxel in data set [1] (30 min, trihydrate) stood at 0.11%; in data set [1] (60 min, trihydrate), 0.12%; in data set [1] (360 min (6 hours), listed as docetaxel solution prepared according to present invention, trihydrate), 0.19%; in data set [1] (Initial) it was 0.11%; in data set [2] it was 0.19%. Further, the “reduction in formation of the epi-isomer degradation product” value in data set [2] (compared to a solution prepared without addition of a metal salt) is recorded as “almost a five-fold reduction”.

`CC(=O)O[C@@]12CO[C@@H]1C[C@H](O)[C@@]1(C)C(=O)[C@H](O)C3=C(C)[C@@H](OC(=O)[C@H](O)[C@@H](NC(=O)OC(C)(C)C)c4ccccc4)C[C@@](O)([C@@H](OC(=O)c4ccccc4)[C@H]21)C3(C)C.O.O.O` [Example 2, Docetaxel trihydrate]: the 7-Epi-docetaxel in data set [3] (1 Month) was 0.022%; in data set [3] (2 Month), 0.044%; in data set [3] (Initial), 0.02%. In addition, the “10-Deacetyl baccatin III” value in data set [3] (1 Month) and in data set [3] (2 Month) was 0.01% each time. Moreover, the “Any individual unspecified unidentified impurity” value worked out at 0.076% in data set [3] (1 Month), 0.083% in data set [3] (2 Month) and 0.07% in data set [3] (Initial). The Total impurities came to 0.27% in data set [3] (1 Month, listed as docetaxel preparing by a process of the present invention, trihydrate); 0.27% in data set [3] (1 Month, trihydrate); 0.27% in data set [3] (2 Month); 0.25% in data set [3] (Initial).

Consider `CC(=O)O[C@@]12CO[C@@H]1C[C@H](O)[C@@]1(C)C(=O)[C@H](O)C3=C(C)[C@@H](OC(=O)[C@H](O)[C@@H](NC(=O)OC(C)(C)C)c4ccccc4)C[C@@](O)([C@@H](OC(=O)c4ccccc4)[C@H]21)C3(C)C.O.O.O` [Example 6, Docetaxel trihydrate], for which the Docetaxel in data set [1] (30 min, trihydrate) is listed as 99.51%; in data set [1] (60 min, trihydrate), 98.95%; in data set [1] (Initial), 99.68%; in data set [2] it was 98.81%. In addition, the Epi-Docetaxel amounted to 0.23% in data set [1] (30 min, trihydrate); 0.34% in data set [1] (60 min, trihydrate); 0.86% in data set [1] (360 min (6 hours), listed as docetaxel solution prepared without using aluminum sulfate, trihydrate); 0.11% in data set [1] (Initial); 0.86% in data set [2].

As for `CC(=O)O[C@@]12CO[C@@H]1C[C@H](O)[C@@]1(C)C(=O)[C@H](O)C3=C(C)[C@@H](OC(=O)[C@H](O)[C@@H](NC(=O)OC(C)(C)C)c4ccccc4)C[C@@](O)([C@@H](OC(=O)c4ccccc4)[C@H]21)C3(C)C` [Without potassium aluminum sulfate, docetaxel], in data set [3] (1 Month), the “7-Epi-10-deacetyl baccatin III” value came to 0.08%, the “7-Epi-10-oxo-10-deacetyl baccatin III” value was 0.01%, the 7-Epi-10-oxo-Docetaxel came out at 0.01% and the 7-Epi-docetaxel is 0.18%. For the same compound, in data set [3] (1 Month), the “10-Deacetyl baccatin III” value was determined as 0.07%, the “Any individual unspecified unidentified impurity” value turned out to be 0.07% and the Total impurities is listed as 0.58%. For the same compound, the Total impurities in data set [3] (1 Month, listed as docetaxel prepared without using potassium aluminum sulfate) is 0.58%.
